# Measured values as given in patent US10730863B2, “Bridged bicyclic compounds as farnesoid X receptor modulators” (BRISTOL-MYERS SQUIBB COMPANY, priority 2017, dated 2020).
# Target: FXR (Homo sapiens (Human), UniProt Q96RI1)
# Experiment: FXR EC50 (FXR agonist activity reported with each example)
# Format: cell-based
# Sequence of FXR (Q96RI1 262-486): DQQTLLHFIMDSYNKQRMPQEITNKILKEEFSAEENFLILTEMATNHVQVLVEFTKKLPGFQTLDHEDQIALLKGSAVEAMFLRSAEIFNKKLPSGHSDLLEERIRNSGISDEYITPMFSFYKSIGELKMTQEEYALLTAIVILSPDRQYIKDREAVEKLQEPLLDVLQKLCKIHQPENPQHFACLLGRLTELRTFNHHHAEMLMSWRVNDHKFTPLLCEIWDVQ
row,Compound,EC50
1,"COc1ccc(-c2noc(C34CCC(OCc5c(-c6c(Cl)cncc6Cl)noc5C5CC5)(CC3)CC4)n2)nc1C(=O)O [Example 253, 6-(5-(4-((5-cyclopropyl-3-(3,5-dichloropyridin-4-yl)isoxazol-4-yl)methoxy)bicyclo[2.2.2]octan-1-yl)-1,2,4-oxadiazol-3-yl)-3-methoxypicolinic acid]",740 nM
2,"O=C(O)c1cc(-c2noc(C34CCC(OCc5c(-c6c(Cl)cncc6Cl)noc5C5CC5)(CC3)CC4)n2)ccc1C(F)(F)F [Example 254, 5-(5-(4-((5-cyclopropyl-3-(3,5-dichloropyridin-4-yl)isoxazol-4-yl)methoxy)bicyclo[2.2.2]octan-1-yl)-1,2,4-oxadiazol-3-yl)-2-(trifluoromethyl)benzoic acid]",2000 nM
3,"COc1ccc(-c2nc(C34CCC(OCc5c(-c6c(Cl)cncc6Cl)noc5C5CC5)(CC3)CC4)cs2)cc1C(=O)O [Example 255, 5-(4-(4-((5-cyclopropyl-3-(3,5-dichloropyridin-4-yl)isoxazol-4-yl)methoxy)bicyclo[2.2.2]octan-1-yl)thiazol-2-yl)-2-methoxybenzoic acid]",18 nM
4,"COc1cc(-c2noc(C34CCC(OCc5c(-c6c(Cl)cncc6Cl)noc5C5CC5)(CC3)CC4)n2)cc(C(=O)O)n1 [Example 257, 4-(5-(4-((5-cyclopropyl-3-(3,5-dichloropyridin-4-yl)isoxazol-4-yl)methoxy)bicyclo[2.2.2]octan-1-yl)-1,2,4-oxadiazol-3-yl)-6-methoxypicolinic acid]",79 nM
5,"O=C(O)c1cc(-c2noc(C34CCC(OCc5c(-c6c(Cl)cncc6Cl)noc5C5CC5)(CC3)CC4)n2)cc(OC2CC2)n1 [Example 260, 6-cyclopropoxy-4-(5-(4-((5-cyclopropyl-3-(3,5-dichloropyridin-4-yl)isoxazol-4-yl)methoxy)bicyclo[2.2.2]octan-1-yl)-1,2,4-oxadiazol-3-yl)picolinic acid]",39 nM
6,"O=C(O)c1cc(-c2noc(C34CCC(OCc5c(-c6c(Cl)cncc6Cl)noc5C5CC5)(CC3)CC4)n2)cc(OC2CCC2)n1 [Example 261, 6-cyclobutoxy-4-(5-(4-((5-cyclopropyl-3-(3,5-dichloropyridin-4-yl)isoxazol-4-yl)methoxy)bicyclo[2.2.2]octan-1-yl)-1,2,4-oxadiazol-3-yl)picolinic acid]",36 nM

# More lines, now with the values ahead:
row,EC50,Compound
1,260 nM,"CC(C)Oc1ccc(-c2noc(C34CCC(OCc5c(-c6c(Cl)cncc6Cl)noc5C5CC5)(CC3)CC4)n2)cc1C(=O)O [Example 256, 5-(5-(4-((5-cyclopropyl-3-(3,5-dichloropyridin-4-yl)isoxazol-4-yl)methoxy)bicyclo[2.2.2]octan-1-yl)-1,2,4-oxadiazol-3-yl)-2-isopropoxybenzoic acid]"
2,8 nM,"CC(C)Oc1cc(-c2noc(C34CCC(OCc5c(-c6c(Cl)cncc6Cl)noc5C5CC5)(CC3)CC4)n2)cc(C(=O)O)n1 [Example 258, 4-(5-(4-((5-cyclopropyl-3-(3,5-dichloropyridin-4-yl)isoxazol-4-yl)methoxy)bicyclo[2.2.2]octan-1-yl)-1,2,4-oxadiazol-3-yl)-6-isopropoxypicolinic acid]"
3,5500 nM,"COc1ccc(-c2nc(C34CCC(OCc5c(-c6c(Cl)cncc6Cl)noc5C5CC5)(CC3)CC4)c[nH]2)cc1C(=O)O [Example 259, 5-(4-(4-((5-cyclopropyl-3-(3,5-dichloropyridin-4-yl)isoxazol-4-yl)methoxy)bicyclo[2.2.2]octan-1-yl)-1H-imidazol-2-yl)-2-methoxybenzoic acid]"
4,53 nM,"CN(C)c1cc(-c2noc(C34CCC(OCc5c(-c6c(Cl)cncc6Cl)noc5C5CC5)(CC3)CC4)n2)cc(C(=O)O)n1 [Example 262, 4-(5-(4-((5-cyclopropyl-3-(3,5-dichloropyridin-4-yl)isoxazol-4-yl)methoxy)bicyclo[2.2.2]octan-1-yl)-1,2,4-oxadiazol-3-yl)-6-(dimethylamino)picolinic acid]"
